Results on 7 compounds are retold here after paper PMC3310325 (Bioconjugate Chemistry, 2012).

Data set [1] addresses T1, MMP-2 (Homo sapiens, UniProt P08253).
T1 sequence (P08253 110-660): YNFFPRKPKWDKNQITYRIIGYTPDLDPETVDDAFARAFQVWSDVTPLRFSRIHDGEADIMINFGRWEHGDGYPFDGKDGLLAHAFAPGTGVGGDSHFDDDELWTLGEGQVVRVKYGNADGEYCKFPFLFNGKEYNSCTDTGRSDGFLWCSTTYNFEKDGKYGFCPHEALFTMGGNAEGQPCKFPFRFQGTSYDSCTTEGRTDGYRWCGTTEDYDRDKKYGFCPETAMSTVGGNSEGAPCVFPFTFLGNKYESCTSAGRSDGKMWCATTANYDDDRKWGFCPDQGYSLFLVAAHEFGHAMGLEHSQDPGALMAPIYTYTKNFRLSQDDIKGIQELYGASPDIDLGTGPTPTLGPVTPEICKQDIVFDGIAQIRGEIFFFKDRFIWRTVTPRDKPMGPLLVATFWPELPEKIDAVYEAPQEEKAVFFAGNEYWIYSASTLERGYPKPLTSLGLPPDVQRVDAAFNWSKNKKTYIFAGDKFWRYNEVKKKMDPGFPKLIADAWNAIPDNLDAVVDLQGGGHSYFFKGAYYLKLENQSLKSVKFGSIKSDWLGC
As to conditions: cited from earlier work.

For data set [2] the following is noted: previously determined; cited from earlier work.
The target of data set [3] is T1, MMP-2. As to conditions: cited from earlier work. This is another data set of the same source.
The subject of data set [4] is MMP-7. As to conditions: cited from earlier work.
Another data set has as its system gelatinases. As to conditions: -PLGVR- sequence; cited from earlier work.
The next data set concerns MMP-3. As to conditions: -PLGVR- sequence; cited from earlier work.
The test system of data set [5] is HT1080 human fibrosarcoma xenografts. As to the kind of experiment: In vivo planar fluorescence imaging in HT1080 tumor-bearing mice. The arrangement: species or system human xenograft in male NCR nude mice.
Data set [6] relates to MMP-7. As to conditions: -PLGVR- sequence; cited from earlier work.
The test system of another data set is MMP-1. As to conditions: -PLGVR- sequence; cited from earlier work.
The subject of data set [7] is MMP-2. As to conditions: 450 kDa co-polymer conjugated to -Pro-Leu-Gly~Val-Arg-Gly-; cited from earlier work.
The next data set concerns MMP-9. As to conditions: single-stranded peptide without the GPO triplets; cited from earlier work.

Like-named read-outs stand apart in the source and are kept apart here.

Consider -Pro-Leu-Gly~Val-Arg-Gly-, for which, on MMP-2 [1], the Km (in general, the concentration of substrate that gives half-maximal velocity) is 290 µM; the kcat (in general, the maximal rate divided by the concentration of active sites) is 4.1 s⁻¹; the kcat/KM – broadly, the second-order rate constant that governs catalysis at low substrate concentration – is 14000 M⁻¹ s⁻¹.
With “[(GPO)5GPK((7-methoxycoumarin-4-yl)acetyl)GPPG~VVGEK(2,4-dinitrophenyl)GEQ(GPO)5]3 [fluorogenic THP]”, the “midpoint transition temperature TM” value in data set [2] is 45 °C. At MMP-2 [3] (MMP-2 hydrolysis), the Km is 4.4 µM, the kcat is 0.062 s⁻¹ and the kcat/KM was 14,000 s^−1M^−1.
Regarding GVPLSLTMGC, the level of quenching with MMP-7 [4] (heterologous donor and acceptor pair of near infrared dyes on the N- and C-terminus) is on record as 85%. Also, the “fluorescence increase after digestion with MMP-7” value in the data set with MMP-7 [4] (heterologous donor/acceptor NIR dyes on N- and C-terminus) is roughly 7 fold.
Regarding -PLGVR- [MMPSense™ 680], the proteolysis by gelatinases result with gelatinases is given as “subject to proteolysis”. For the same compound, the “proteolysis by MMP-3” value with MMP-3 was “subject to proteolysis”. In addition, the “tumor contrast versus contralateral thigh” value in data set [5] (24 h post-injection, MMPSense 680 2 nmol i.v., n=3) is recorded as “about two-fold”. In addition, the “tumor-specific fluorescence enhancement relative to LS276-THP” value in [5] (MMPSense 680 2 nmol i.v. vs LS276-THP i.p.) was “slightly higher”. For the same compound, the “tumor-specific fluorescence contrast over time” value in data set [5] (MMPSense 680 2 nmol i.v., n=3, 24 h) is listed as “increased over time for 24 h”. The “proteolysis by MMP-7” value with MMP-7 [6] is given as “subject to proteolysis”. Moreover, in the data set with MMP-1, the “proteolysis by MMP-1” value is reported as “subject to proteolysis”.
With `CNC(=O)[C@H](Cc1c[nH]c2ccccc12)NC(=O)[C@@H](CC(=O)NO)CC(C)C` [Ilomastat], in [5] (mice treated with Ilomastat 1 mg/kg i.p., LS276-THP i.p.), the “time course of tumor fluorescence intensity with inhibitor” value is “a steady increase in fluorescence intensity occurred, indicating incomplete inhibition of tumor-associated MMP-2/MMP-9 activity”.
Turning to “-Pro-Leu-Gly~Val-Arg-Gly- [poly-lysine-PEG co-polymer]”, the “in vivo visualization of MMP-2 activity” value in the data set with MMP-2 [7] is on record as “MMP-2 activity in mouse models was visualized”.
Turning to GPPG~VVGEKGEQ, the “hydrolysis by MMP-9” value with MMP-9 is recorded as “hydrolyzed extremely slowly”. The “hydrolysis by MMP-2” value on MMP-2 [3] (single-stranded peptide without the GPO triplets) is on record as “hydrolyzed extremely slowly”.
